Assay results: patent publication US20230000934A1, “METHODS FOR ENGINEERING THERAPEUTICS AND USES THEREOF” (The Trustees of Columbia University In The City of New York, priority 2019, published 2023)

What was measured:
[1] = cited from earlier work
[2] = system: cofactor F420 reductase from Methanobacterium thermoautotrophicum; settings: as substrate of the F420 reductase; cited from earlier work
S. cerevisiae = type: cell-based, Saccharomyces cerevisiae
From the text: The third primary library (PL3) mediates TAN-1612 high-titer toxicity by merging three complimentary routes. This example (i) optimizes performance of an efflux pump in order to reduce intracellular TAN-1612 concentrations, (ii) screens a large number of wild yeast isolates for higher TAN-1612 tolerance and use them for background crossing and (iii) evolves the v2.0 producer for TAN-1612 resistance through random mutagenesis and selection. In preliminary results, TAN-1612 and anhydrotetracycline (Atc) growth inhibition in concentrations of 10 mg/L was confirmed. In order to increase TAN-1612 tolerance the v2.0 producer co-expresses the supposed efflux pump […]_48051 (GenBank: EHA19824.1) that was obtained by genome-mining from the natural producer strain A. niger. […] This can improve pump performance via gene titration and genome-mines other efflux pumps. PL3 further includes of a large number (>50) of wild S. cerevisiae isolates that are screened for higher tolerance to TAN-1612 using a growth-based microtiter plate assay.

[3] = system: Saccharomyces cerevisiae BJ5464; assay: Toxicity assay of TAN-1612 in Saccharomyces cerevisiae; type: cell-based
Method: The toxicity assay of TAN-1612 in Saccharomyces cerevisiae. BJ5464 strains were cultured in complete synthetic medium in presence of different tetracycline or its analogs. […] (FIG. 42B) BJ5464 strains were cultured in YPD: non-defined medium in presence of different tetracycline or its analogs. (FIG. 42A). […] (FIG. 43).

Compound	Relative rate of acid hydrolysis (to OMe) [1]	growth inhibition in concentrations of (S. cerevisiae) [mg/L]	further results
OCC1OC(OC(c2ccccc2)c2ccccc2)C(O)C(O)C1O (stereo not shown)	25.6	–	–
OCC1OC(OC23CC4CC(CC(C4)C2)C3)C(O)C(O)C1O (stereo not shown)	48.5	–	–
O=c1nc2n(C[C@H](O)[C@H](O)[C@H](O)CO)c3cc(O)ccc3cc-2c(=O)[nH]1 [Fo, 7,8-didemethyl-8-hydroxy-5-deazariboflavin]	–	–	Km [2]: 34 µM
COc1cc(O)c2c(O)c3c(cc2c1)CC1(O)CC(=O)C(C(C)=O)=C(O)C1(O)C3=O (stereo not shown) [TAN-1612]	–	10	toxicity at the range of ([3]; BJ5464 cultured in YPD non-defined medium): 50 to 100 mg/L; toxicity at the range of ([3]; BJ5464 cultured in complete synthetic medium): 1 to 10 mg/L
Cc1c2c(c(O)c3c(O)cccc13)C(=O)[C@]1(O)C(=O)C(C(N)=O)=C(O)[C@@H](N(C)C)[C@@H]1C2 [anhydrotetracycline, reference compound]	–	10	–
